Here are results for twelve molecules from patent US7642350B2, “Purine derivatives” (Pfizer Limited, priority 2005, dated 2010).

Read-outs that look alike come from different tables or passages of the source.

Assay [1] concerns the target T1, TLR7 receptor (Homo sapiens, UniProt Q9NYK1).
T1 sequence (Q9NYK1 27-1049): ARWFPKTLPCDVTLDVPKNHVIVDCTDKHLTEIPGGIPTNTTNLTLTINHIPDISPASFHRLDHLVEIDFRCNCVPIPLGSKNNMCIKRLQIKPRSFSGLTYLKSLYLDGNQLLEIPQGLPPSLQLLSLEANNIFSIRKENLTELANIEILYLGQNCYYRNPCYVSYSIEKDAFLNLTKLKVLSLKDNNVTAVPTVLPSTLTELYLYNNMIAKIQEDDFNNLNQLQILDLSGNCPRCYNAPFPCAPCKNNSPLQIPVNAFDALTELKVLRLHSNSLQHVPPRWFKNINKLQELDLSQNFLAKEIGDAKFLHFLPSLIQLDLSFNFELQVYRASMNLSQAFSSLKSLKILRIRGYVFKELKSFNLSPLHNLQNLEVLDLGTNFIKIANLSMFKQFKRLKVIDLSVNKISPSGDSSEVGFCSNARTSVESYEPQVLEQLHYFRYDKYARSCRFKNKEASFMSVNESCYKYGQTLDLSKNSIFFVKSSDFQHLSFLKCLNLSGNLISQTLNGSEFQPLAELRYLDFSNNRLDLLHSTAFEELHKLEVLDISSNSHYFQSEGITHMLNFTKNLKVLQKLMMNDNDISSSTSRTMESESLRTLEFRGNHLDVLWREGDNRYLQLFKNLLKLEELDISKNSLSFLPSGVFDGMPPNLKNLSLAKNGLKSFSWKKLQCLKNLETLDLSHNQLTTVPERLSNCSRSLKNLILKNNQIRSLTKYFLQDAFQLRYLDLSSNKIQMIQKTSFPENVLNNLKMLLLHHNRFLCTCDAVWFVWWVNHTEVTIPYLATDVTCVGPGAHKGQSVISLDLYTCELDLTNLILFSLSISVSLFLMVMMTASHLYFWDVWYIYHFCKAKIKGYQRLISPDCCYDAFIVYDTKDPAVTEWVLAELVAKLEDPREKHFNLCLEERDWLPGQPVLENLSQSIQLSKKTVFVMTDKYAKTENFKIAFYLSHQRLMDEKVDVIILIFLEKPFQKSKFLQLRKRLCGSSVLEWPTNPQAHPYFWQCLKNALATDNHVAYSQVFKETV
As to the kind of experiment: cell-based. The note with it: for inhibition at 10 µM: read-out: inhibition at 10 μM.
Description: (§1) PBL contain as a subpopulation plasmacytoid dendritic cells which are the natural interferon producing cells during an infection and as such are an excellent model in which to profile interferon inducers. As an extremely sensitive antiviral bioassay, supernatant taken from PBL is assayed for antiviral activity in the HCV replicon system.
(§2) The HCV replicon (Huh-5-2[I389luc-ubi-neo-NS3-3′/ET]) is an in vitro model of HCV replication in which the luciferase reporter is incorporated into HCV sequences and stably maintained in the human hepatoma cell line Huh-7. The firefly luciferase reporter is expressed as a luciferase-ubiquitin-neomycin phosphotransferase fusion protein which is cleaved by host proteases to release luciferase. The replicon also contains an internal EMCV IRES, which drives translation of HCV NS3-5B polyprotein, which harbour cell culture adapted mutations to permit high cloning efficiency. […] Firefly luciferase activity is detected using a Bright-Glo™ Luciferase Assay System manufactured by Promega.
(§3) An initial 3 fold serial dilution series of compounds in 100% DMSO is prepared from stocks. The dilution series is then further diluted 100 fold with complete RPMI—FCS. The final concentration of DMSO in the assay is thus 0.1% and that of the test compound is 1/1000 in the 100% DMSO dilution series.
(§4) PBL are prepared seeded at 5×10^5/well/90 μl into the previously prepared compound containing assay plates (96 well clear bottomed TC grade) and incubated for 24 h.
(§5) LucUbiNeo HCV replicon cells are seeded at 10^4/well/90 μl. These are incubated for 24 h. After 24 h 10 μl of medium is transferred from the PBL assay plates to the HCV replicon plates and incubated for a further 48 h.

Assay [2] concerns the target T1, TLR7 receptor. The note with it: read-out: EC50 (antiviral EC50); concentration of test compound applied to PBL (24 h) giving 50% reduction of HCV replicon levels after transfer of PBL medium to Huh-5-2 luciferase replicon cells (48 h). On the technique in general: A replicon is a self-replicating genome or part of one, used to study replication in cells.
Description: as §1, §2, §3, §4, §5

A word on the inhibition: it is the relative decrease from the control value, in per cent. What is called EC50 is the concentration at which the effect is half-maximal.

Turning to `Cc1ccc(S(=O)(=O)NC(=O)c2nc(N)c3[nH]c(=O)n(Cc4ccccc4)c3n2)cc1` [Example 221, 6-Amino-9-benzyl-N-(toluylsulfonyl)-8-oxo-8,9-dihydro-7H-purine-2-carboxamide], the inhibition at 10 µM in assay [1] is above 50%. In the case of `COCCn1c(=O)[nH]c2c(N)nc(C(=O)N(C)Cc3ccccc3)nc21` [Example 36], in assay [1], the inhibition at 10 µM is above 50%. Regarding `Nc1nc(C(=O)NCc2ccccc2)nc2c1[nH]c(=O)n2Cc1ccccc1` [Example 14], the inhibition at 10 µM in assay [1] is above 50%. Still for that read-out and setting: the figure for `CCCCS(=O)(=O)NC(=O)c1nc(N)c2[nH]c(=O)n(Cc3ccccc3)c2n1` [Example 226] is above 50%; for `NC(=O)c1nc(N)c2[nH]c(=O)n(Cc3ccccc3)c2n1` [Example 11] it is above 50%. Turning to `CNC(=O)c1nc(N)c2[nH]c(=O)n(Cc3ccccc3)c2n1` [Example 5], in assay [1], the EC50 was determined as 42 nM and the inhibition at 10 µM was above 50%. As to `COCCn1c(=O)[nH]c2c(N)nc(C(=O)NCc3ccccc3)nc21` [Example 33], the inhibition at 10 µM in assay [1] was above 50%. Take `Nc1nc(C(=O)N2CCC2)nc2c1[nH]c(=O)n2Cc1ccccc1` [Example 4]: in assay [1], the concentration for a half-maximal effect (EC50) is 72 nM and the inhibition at 10 µM was above 50%. On the same counts, the results for `CCNC(=O)c1nc(N)c2[nH]c(=O)n(Cc3ccccc3)c2n1` [Example 6] are 17 nM and above 50%. On the same counts, the results for `Nc1nc(C(=O)NCC2CC2)nc2c1[nH]c(=O)n2Cc1ccccc1` [Example 1, 6-Amino-9-benzyl-8-oxo-8,9-dihydro-7H-purine-2-carboxylic acid cyclopropylmethyl-amide] are 30 nM and above 50%. Turning to `COCCNC(=O)c1nc(N)c2[nH]c(=O)n(Cc3ccccc3)c2n1` [Example 2], the EC50 in assay [2] is 5 nM. Also, the inhibition at 10 µM in assay [1] is above 50%.

On to `Nc1nc(C(=O)NS(=O)(=O)c2ccccc2)nc2c1[nH]c(=O)n2Cc1ccccc1` [Example 222], for which the inhibition at 10 µM in assay [1] is above 50%.
